Experiment [1] addresses T1, Human recombinant MKlp2 motor domain1-519, His tagged (Homo sapiens, UniProt O95235).
T1 construct: Human recombinant MKlp2 motor domain1-519, His tagged; His; purchased Cytoskeleton MP05
T1 sequence (O95235 1-519): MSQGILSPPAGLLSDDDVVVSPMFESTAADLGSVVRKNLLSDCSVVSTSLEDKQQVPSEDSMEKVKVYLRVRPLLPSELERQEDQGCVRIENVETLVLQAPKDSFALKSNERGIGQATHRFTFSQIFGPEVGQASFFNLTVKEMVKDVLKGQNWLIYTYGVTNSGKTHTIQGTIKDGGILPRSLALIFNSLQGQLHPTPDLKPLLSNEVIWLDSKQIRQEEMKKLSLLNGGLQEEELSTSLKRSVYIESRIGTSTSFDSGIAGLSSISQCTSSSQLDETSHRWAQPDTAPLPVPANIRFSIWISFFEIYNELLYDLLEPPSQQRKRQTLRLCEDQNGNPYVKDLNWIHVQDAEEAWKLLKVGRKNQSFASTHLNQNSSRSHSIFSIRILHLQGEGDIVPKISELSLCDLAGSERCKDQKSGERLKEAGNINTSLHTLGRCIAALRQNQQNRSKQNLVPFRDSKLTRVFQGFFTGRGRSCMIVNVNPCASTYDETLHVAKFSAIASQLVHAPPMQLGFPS
Kind of experiment: Microtubule stimulated ATPase activity of the MKlp2 motor domain (Kinesin ELIPA Assay Kit). Conditions: read-out: MKIp2 IC50. In kind it is biochemical. The procedure:
Evaluation of Inhibitory Effects on the Microtubule Stimulated ATPase Activity of the MKlp2 Motor Domain.
MKlp2 ATPase activity was measured by monitoring real time free phosphate generation using the Kinesin ELIPA Assay Kit. The assay is based upon an absorbance shift (330 nm-360 nm) that occurs when 2-amino-6-mercapto-7-methylpurine ribonucleoside (MESG) is catalytically converted to 2-amino-6-mercapto-7-methylpurine in the presence of inorganic phosphate (Pi). One molecule of Pi will yield one molecule of 2-amino-6-mercapto-7-methylpurine in an essentially irreversible reaction.
All experiments were performed at 22° C.
Condition 1, compound preparation.
The compounds were dissolved in DMSO at 30× the maximum concentration to be tested. […] DMSO solutions were pipetted directly into each well.
Condition 2, reaction's “motor mix”.
The following were mixed sequentially in the specified order at RT to obtain the “motor mix”.
20 mL: 15 mM Pipes-NaOH pH 7.0, 10 mM MgCl2, 30 μM Tx (Buffer 1).
10 mL: 5× MSEG (ELIPA 1 reagent, Cat. # BK051).
10 mL: 2.5 mg/mL porcine brain microtubules (3×10 mg Cat. # MT002-XL resuspended in 12 mL of Buffer 1).
0.5 mL: 100×PNP (ELIPA 2 reagent, cat. # BK051).
Condition 3, reaction initiation.
The motor mix was pipetted into each well to obtain 80% of total volume. The reaction was initiated by adding a 20% of total volume of 5 mM ATP into each well.
The reactions were measured in a SpectraMax M2 (Molecular Devices) set in kinetic mode and 360 nm absorbance wavelength. The start protocol was 5 second rapid circular mixing, 21 readings, 30 seconds apart.

The subject of the next experiment is K562 cells. Kind of experiment: Cytotoxicity on human cancer cells (WST-1), K562. Format: cell-based. Conditions: WST-1 on D4, read-out: K562 IC50. How it is done: Evaluation of Cytotoxicity Effects on Human Cancer Cells
The effects of the compounds of the invention on the viability of human cancer cells were studied on various human cancer cell lines of differing tissue origins (A549, NCI-H460: lung cancer; MDA-MB-231: breast cancer; HCT-116, HT-29: colon cancer; MIA-PaCa-2: pancreatic cancer; K562: leukaemia). All cell lines were obtained from ATCC or ECACC. Cells were cultured in the culture media described below, under a 37° C., 5% CO2 humidified atmosphere, according to a standard operating procedure.
On D0, the cells were plated in 90 μl in 96 wells plates at densities ranging from 500 to 5,000 cells per well.
Following addition of the test substance the cells were protected from light. The solvents (DMSO and specific control solvent were added at the maximal concentration: 10 μl/well (3 wells/condition)).
On D4, the Cell Proliferation Reagent WST-1 was added to each well (10 μl/well), according to a standard operating procedure. The cells were then incubated for 30 min to 4 h at 37° C.-5% CO2. After these incubations, the 96-well plates were shaken thoroughly for 1 min with Multiskan® EX apparatus (Thermo Labsystems, France). The absorbence was measured at 450 nm, the reference wavelength being 620 nm. The analysis of the results was performed with the Ascent software 2.6 (Thermo Labsystems, France), Microsoft Excel 2003 and GraphPad Prism 4.03 softwares to give the concentration of the compounds that induces the death of 50% of the cells (IC50).

Where [2] appears, read: Table 6 (prodrugs, formula II), K562 cells.

Like-named read-outs stand apart in the source and are kept apart here.

The term IC50 denotes the midpoint of a concentration-inhibition curve.

On to `COc1ccc(C#N)cc1/C=C(\C#N)c1cn(C(=O)CC(NC(=O)OC(C)(C)C)C(=O)OCc2ccccc2)c2ccc(Br)cc12` (stereo in doubt) [Example 65, (R,Z)-benzyl-4-(5-bromo-3-(1-cyano-2-(5-cyano-2-methoxyphenyl)vinyl)-1H-indol-1-yl)-2-(tert-butoxycarbonylamino)-4-oxobutanoate], for which the IC50 in experiment [1] (Table 6 (prodrugs, formula II)) came out at 10100 nM; in the experiment with K562 cells (setting [2]) it was 40 nM.

Take `COc1ccc(C#N)cc1/C=C(\C#N)c1cn(C(=O)CCC(NC(=O)OC(C)(C)C)C(=O)OC(C)(C)C)c2ccc(Br)cc12` (stereo in doubt) [Example 66, (R,Z)-tert-butyl-5-(5-bromo-3-(1-cyano-2-(5-cyano-2-methoxyphenyl)vinyl)-1H-indol-1-yl)-2-(tert-butoxycarbonylamino)-5-oxopentanoate]: the IC50 was 5400 nM in experiment [1] (Table 6 (prodrugs, formula II)) and 30 nM with K562 cells (setting [2]).

Turning to `COc1ccc(C#N)cc1/C=C(\C#N)c1cn(C(=O)CC(N)C(=O)OCc2ccccc2)c2ccc(Br)cc12` (stereo in doubt) [Example 67, (R,Z)-benzyl-2-amino-4-(5-bromo-3-(1-cyano-2-(5-cyano-2-methoxyphenyl)vinyl)-1H-indol-1-yl)-4-oxobutanoate], the IC50 in experiment [1] (Table 6 (prodrugs, formula II)) was 3100 nM; with K562 cells (setting [2]), 40 nM.

As to `N#C/C(=C\c1cnccc1Cl)c1c[nH]c2ccc(Cl)cc12` [Example 3, (Z)-2-(5-chloro-1H-indol-3-yl)-3-(4-chloropyridin-3-yl)acrylonitrile], the IC50 was 800 nM in experiment [1] (Table 3, 22° C.) and 3600 nM in the experiment with K562 cells (Table 4, K562 leukaemia cells).

For `N#C/C(=C\c1cnccc1Cl)c1c[nH]c2ccc(Br)cc12` [Example 4, (Z)-2-(5-bromo-1H-indol-3-yl)-3-(4-chloropyridin-3-yl)acrylonitrile], the IC50 was found to be 700 nM in experiment [1] (Table 3, 22° C.) and 1400 nM with K562 cells (Table 4, K562 leukaemia cells).

Regarding `COc1ccncc1/C=C(/C#N)c1c[nH]c2ccc(Br)cc12` [Example 5b, (E)-2-(5-bromo-1H-indol-3-yl)-3-(4-methoxypyridin-3-yl)acrylonitrile], the IC50 stood at 610 nM in experiment [1] (Table 3, 22° C.) and 3920 nM in the experiment on K562 cells (Table 4, K562 leukaemia cells).

Take `CN(C)c1ccncc1/C=C(\C#N)c1c[nH]c2ccc(Br)cc12` [Example 8, (Z)-2-(5-bromo-1H-indol-3-yl)-3-(4-(dimethylamino)pyridin-3-yl)acrylonitrile]: the IC50 in experiment [1] (Table 3, 22° C.) turned out to be 900 nM; in the experiment with K562 cells (Table 4, K562 leukaemia cells), 7500 nM.

`COc1ccncc1/C=C(\C#N)c1c[nH]c2ccc(Cl)cc12` [Example 9, (Z)-2-(5-chloro-1H-indol-3-yl)-3-(4-methoxypyridin-3-yl)acrylonitrile]: the IC50 in experiment [1] (Table 3, 22° C.) is 100 nM; with K562 cells (Table 4, K562 leukaemia cells) it was 1400 nM.

For the compound `COc1ccc2[nH]cc(/C(C#N)=C/c3cnccc3OC)c2c1` [Example 12, (Z)-2-(5-methoxy-1H-indol-3-yl)-3-(4-methoxypyridin-3-yl)acrylonitrile], the IC50 in experiment [1] (Table 3, 22° C.) is 300 nM; in the experiment on K562 cells (Table 4, K562 leukaemia cells), 900 nM.

For the compound `CSc1ccncc1/C=C(\C#N)c1c[nH]c2ccc(Br)cc12` [Example 15, (Z)-2-(5-bromo-1H-indol-3-yl)-3-(4-(methylthio)pyridin-3-yl)acrylonitrile], the 50% inhibitory concentration (IC50) was determined as 200 nM in experiment [1] (Table 3, 22° C.) and 2900 nM in the experiment on K562 cells (Table 4, K562 leukaemia cells).

Take `CCN(CC)c1ccncc1/C=C(\C#N)c1c[nH]c2ccc(Br)cc12` [Example 24, (Z)-2-(5-bromo-1H-indol-3-yl)-3-(4-(diethylamino)pyridin-3-yl)acrylonitrile]: the IC50 worked out at 1100 nM in experiment [1] (Table 3, 22° C.) and 3100 nM with K562 cells (Table 4, K562 leukaemia cells).

On to `N#C/C(=C\c1cnccc1-c1ccoc1)c1c[nH]c2ccc(Cl)cc12` [Example 29, (Z)-2-(5-chloro-1H-indol-3-yl)-3-(4-(furan-3-yl)pyridin-3-yl)acrylonitrile], for which the half-maximal inhibitory concentration (IC50) in experiment [1] (Table 3, 22° C.) was 30 nM; in the experiment on K562 cells (Table 4, K562 leukaemia cells) it was 4700 nM.

As for `N#C/C(=C\c1cnccc1-c1ccoc1)c1c[nH]c2ccc(Br)cc12` [Example 34, (Z)-2-(5-bromo-1H-indol-3-yl)-3-(4-(furan-3-yl)pyridin-3-yl)acrylonitrile], the IC50 in experiment [1] (Table 3, 22° C.) is 70 nM; in the experiment with K562 cells (Table 4, K562 leukaemia cells), 2200 nM.

For the compound `N#C/C(=C/c1cnccc1-c1ccoc1)c1c[nH]c2ccc(Br)cc12` [Example 34b, (E)-2-(5-bromo-1H-indol-3-yl)-3-(4-(furan-3-yl)pyridin-3-yl)acrylonitrile], the IC50 in experiment [1] (Table 3, 22° C.) is 960 nM; in the experiment on K562 cells (Table 4, K562 leukaemia cells) it was 14300 nM.

As to `N#C/C(=C\c1c[n+]([O-])ccc1-c1ccoc1)c1c[nH]c2ccc(Br)cc12` [Example 48, (Z)-3-(2-(5-bromo-1H-indol-3-yl)-2-cyanovinyl)-4-(furan-3-yl)pyridine-1-oxide], the concentration for half-maximal inhibition (IC50) was 730 nM in experiment [1] (Table 3, 22° C.) and 6710 nM with K562 cells (Table 4, K562 leukaemia cells).

Take `COc1cc[n+]([O-])cc1/C=C(\C#N)c1c[nH]c2ccc(Cl)cc12` [Example 49, (Z)-3-(2-(5-chloro-1H-indol-3-yl)-2-cyanovinyl)-4-methoxypyridine 1-oxide]: the IC50 was found to be 560 nM in experiment [1] (Table 3, 22° C.) and 9230 nM with K562 cells (Table 4, K562 leukaemia cells).

As for `COc1ccc2c(/C(C#N)=C/c3cc(C#N)ccc3OC)c[nH]c2c1` [Example 54, (Z)-3-(2-cyano-2-(6-methoxy-1H-indol-3-yl)vinyl)-4-methoxybenzonitrile], the half-maximal inhibitory concentration (IC50) in experiment [1] (Table 3, 22° C.) was found to be 1400 nM; with K562 cells (Table 4, K562 leukaemia cells), 20 nM.

Consider `COc1ccncc1/C=C(\C#N)c1cn(C(C)=O)c2ccc(Br)cc12` [Example 55, (Z)-2-(1-acetyl-5-bromo-1H-indol-3-yl)-3-(4-methoxypyridin-3-yl)acrylonitrile], for which the IC50 in experiment [1] (Table 6 (prodrugs, formula II)) is 13700 nM; in the experiment with K562 cells (setting [2]), 550 nM.

Regarding `COc1ccc(C#N)cc1/C=C(\C#N)c1cn(C(C)=O)c2ccc(Br)cc12` [Example 56, (Z)-3-(2-(1-acetyl-5-bromo-1H-indol-3-yl)-2-cyanovinyl)-4-methoxybenzonitrile], the concentration for half-maximal inhibition (IC50) in experiment [1] (Table 6 (prodrugs, formula II)) amounted to 16700 nM; with K562 cells (setting [2]), 250 nM.

In the case of `COc1ccncc1/C=C(\C#N)c1cn(C(=O)C(C)(C)C)c2ccc(Br)cc12` [Example 57, (Z)-2-(5-bromo-1-pivaloyl-1H-indol-3-yl)-3-(4-methoxypyridin-3-yl)acrylonitrile], the IC50 in experiment [1] (Table 6 (prodrugs, formula II)) was 20000 nM; in the experiment on K562 cells (setting [2]) it was 200 nM.

As to `COc1ccc(C#N)cc1/C=C(\C#N)c1cn(C(=O)C(C)(C)C)c2ccc(Br)cc12` [Example 58, (Z)-3-(2-(5-bromo-1-pivaloyl-1H-indol-3-yl)-2-cyanovinyl)-4-methoxybenzonitrile], the concentration for half-maximal inhibition (IC50) stood at 7500 nM in experiment [1] (Table 6 (prodrugs, formula II)) and 60 nM in the experiment on K562 cells (setting [2]).

`COc1ccc(C#N)cc1/C=C(\C#N)c1cn(C(=O)OC(C)(C)C)c2ccc(Br)cc12` [Example 64, (Z)-tert-butyl 5-bromo-3-(1-cyano-2-(5-cyano-2-methoxyphenyl)vinyl)-1H-indole-1-carboxylate]: the half-maximal inhibitory concentration (IC50) in experiment [1] (Table 6 (prodrugs, formula II)) is 19600 nM; in the experiment on K562 cells (setting [2]), 240 nM.

For the compound `COc1ccc(C#N)cc1/C=C(\C#N)c1cn(C(=O)CN2CCN(C)CC2)c2ccc(Br)cc12` [Example 68, (Z)-3-(2-(5-bromo-1-(2-(4-methylpiperazin-1-yl)acetyl)-1H-indol-3-yl)-2-cyanovinyl)-4-methoxybenzonitrile], the IC50 in experiment [1] (Table 6 (prodrugs, formula II)) is above 50000 nM; in the experiment with K562 cells (setting [2]), 30 nM.

The values are drawn from patent US10189782B2, “Derivatives of indole for the treatment of cancer, viral infections and lung diseases” (BIOKINESIS, priority 2012, dated 2019).
